From ChEMBL document CHEMBL3352631, “The identification of 7-[(R)-2-((1S,2S)-2-benzyloxycyclopentylamino)-1-hydroxyethyl]-4-hydroxybenzothiazolone as an inhaled long-acting β2-adrenoceptor agonist” (Bioorg Med Chem Lett, 2014)

Legend:
Rattus norvegicus [1] = test: Volume of distribution at steady state in rat at 5 umol/kg, iv; format: ADME, organism-based; conditions: in vivo
[2] = Lipophilicity, logD of the compound at pH 7.4 by chromatographic method; format: physicochemical; conditions: buffer
Rattus norvegicus [3] = test: Volume of distribution at steady state in rat at 2.1 umol/kg, iv; format: ADME, organism-based; conditions: in vivo

Row | SMILES | Vdss (Rattus norvegicus [1]) | chromatographic logD [2] | Vdss (Rattus norvegicus [3])
1 | CCc1cc2c(cc1CC)CC(NC[C@H](O)c1ccc(O)c3[nH]c(=O)ccc13)C2 [INDACATEROL] | 4.1 mL/min/kg | 1.77 | –
2 | O=c1[nH]c2c(O)ccc([C@@H](O)CN[C@H]3CCC[C@@H]3OCc3ccccc3)c2s1 | – | 1.25 | 6.2 mL/min/kg
